For seven compounds, IC50 results are on record in US20240101573A1, “MACROCYCLIC K-RAS G12C INHIBITOR, PREPARATION METHOD THEREFOR AND USE THEREOF” (Abbisko Therapeutics Co., Ltd., priority 2020, published 2024).

Each structure is given as a SMILES string.

The subject of one assay is H358. The assay is described as follows: Anti-proliferation 2D CTG test (H358). It is filed as cell-based. The conditions noted are these: H358 cells, 1500 cells/well, 5 days incubation with compound, CTG readout. Put shortly:
(§1)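 H358 (1500 cells/well) and MIA PaCa-2 (500 cells/well) seeded overnight, then treated 5 days at 37 °C with 10-point 1:3 dilutions, top final […], 0.5% DMSO. Viability by CellTiter-Glo luminescence; IC50 from four-parameter fit normalized to plate controls.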

The next assay relates to MIA PaCa-2. Briefly: Anti-proliferation 2D CTG test (MIA PaCa-2). It is filed as cell-based. To be noted: MIAPACA-2 cells, 500 cells/well, 5 days incubation with compound, CTG readout. Put shortly: as §1

With `C=CC(=O)N1C[C@H](C)N(c2nc(=O)n3c4nc(c(F)cc24)-c2c(ccc(Cl)c2F)OCC(O)C(OCC)c2ccnc(C(C)C)c2-3)C[C@H]1C` (stereo partly drawn) [Example 70, 2^4-((2S,5R)-4-acryloyl-2,5-dimethylpiperazin-1-yl)-3^5-chloro-7-ethoxy-2^6,3^6-difluoro-6-hydroxy-1^2-isopropyl-2^1,2^2-dihydro-4-oxa-2(1,7)-pyrido[2,3-d]pyrimidina-1(3,4)-pyridina-3(1,2)-benzocycloheptane-2^2-one], the values for the IC50 with H358 and in the assay on MIA PaCa-2 were 16 nM and 7 nM, respectively.

For the compound `C=CC(=O)N1C[C@H](C)N(c2nc(=O)n3c4nc(c(F)cc24)-c2c(ccc(Cl)c2F)OCC(OCC)C(O)c2ccnc(C(C)C)c2-3)C[C@H]1C` (stereo partly drawn) [Example 71, 2^4-((2S,5R)-4-acryloyl-2,5-dimethylpiperazin-1-yl)-3^5-chloro-6-ethoxy-2^6,3^6-difluoro-7-hydroxy-1^2-isopropyl-2^1,2^2-dihydro-4-oxa-2(1,7)-pyrido[2,3-d]pyrimidina-1(3,4)-pyridina-3(1,2)-benzocycloheptane-2^2-one], the IC50 came out at 8 nM with H358 and 3 nM with MIA PaCa-2.

For the compound `C=CC(=O)N1CCN(c2nc(=O)n3c4nc(c(F)cc24)-c2c(ccc(Cl)c2F)OCC(O)C(OCC)c2ccnc(C(C)C)c2-3)[C@@H](C)C1` (stereo partly drawn) [Example 72, (R)-2^4-((S)-4-acryloyl-2-methylpiperazin-1-yl)-3^5-chloro-7-ethoxy-2^6,3^6-difluoro-6-hydroxy-1^2-isopropyl-2^1,2^2-dihydro-4-oxa-2(1,7)-pyrido[2,3-d]pyrimidina-1(3,4)-pyridina-3(1,2)-benzocycloheptane-2^2-one], the IC50 with H358 stood at 7 nM; in the assay with MIA PaCa-2, 6 nM.

Take `C=CC(=O)N1CCN(c2nc(=O)n3c4nc(c(F)cc24)-c2c(ccc(Cl)c2F)OCC(OCC)C(O)c2ccnc(C(C)C)c2-3)[C@@H](C)C1` (stereo partly drawn) [Example 75, (R)-2^4-((S)-4-acryloyl-2-methylpiperazin-1-yl)-3^5-chloro-6-ethoxy-2^6,3^6-difluoro-7-hydroxy-1^2-isopropyl-2^1,2^2-dihydro-4-oxa-2(1,7)-pyrido[2,3-d]pyrimidina-1(3,4)-pyridina-3(1,2)-benzocycloheptane-2^2-one]: the results for the IC50 in the assay with H358 and in the assay with MIA PaCa-2 were 3 nM and 6 nM, respectively.

Take `C=CC(=O)N1C[C@H](C)N(c2nc(=O)n3c4nc(c(F)cc24)-c2c(ccc(Cl)c2F)OCC(O)C(OCC)c2ccnc(C(C)C)c2-3)C[C@H]1C` (stereo partly drawn) [Example 76, (R)-2^4-((2S,5R)-4-acryloyl-2,5-dimethylpiperazin-1-yl)-3^5-chloro-7-ethoxy-2^6,3^6-difluoro-6-hydroxy-1^2-isopropyl-2^1,2^2-dihydro-4-oxa-2(1,7)-pyrido[2,3-d]pyrimidina-1(3,4)-pyridina-3(1,2)-benzocycloheptane-2^2-one]: the IC50 with H358 and with MIA PaCa-2 was 4 nM in each case.

In the case of `C=CC(=O)N1C[C@H](C)N(c2nc(=O)n3c4nc(c(F)cc24)-c2c(ccc(Cl)c2F)OCC(OCC)C(O)c2ccnc(C(C)C)c2-3)C[C@H]1C` (stereo partly drawn) [Example 78, (R)-2^4-((2S,5R)-4-acryloyl-2,5-dimethylpiperazin-1-yl)-3^5-chloro-6-ethoxy-2^6,3^6-difluoro-7-hydroxy-1^2-isopropyl-2^1,2^2-dihydro-4-oxa-2(1,7)-pyrido[2,3-d]pyrimidina-1(3,4)-pyridina-3(1,2)-benzocycloheptane-2^2-one], the IC50 in the assay with H358 is 5 nM; in the assay with MIA PaCa-2, 3 nM.

Turning to `C=CC(=O)N1CCN(c2nc(=O)n3c4nc(c(F)cc24)-c2c(F)cccc2OCCCc2ccnc(C(C)C)c2-3)[C@@H](C)C1` [Positive compound, reference compound], the IC50 is 8 nM in the assay with H358 (Homo sapiens, NCI-H358, 120 h) and 11 nM in the assay on MIA PaCa-2 (Homo sapiens, MIA PaCa-2, 120 h).

By IC50 is commonly meant the concentration at which inhibition is half-maximal.
